Data set [1] in a line: Stability of calcitriol in Miglyol 812 (caprylic/capric triglycerides), HPLC assay. The class given is physicochemical. Particulars: calcitriol 30 ppm in Miglyol 812 with 0.4% BHT. An excerpt: a) Stability of calcitriol in Miglyol 812 (caprylic/capric triglycerides): Solution of calcitriol 30 ppm in qs 100% of Miglyol 812 in the presence of 0.4% of BHT. HPLC assay technique against reference substance. At the starting time (TO) the composition is considered to contain 100% of calcitriol. Concentration of calcitriol measured in % relative to TO: […]

Data set [2] in a line: Stability of calcitriol in Cetiol SN (cetearyl isononanoate), HPLC assay. Format: physicochemical. The settings on record: calcitriol 30 ppm in Cetiol SN with 0.4% BHT. An excerpt:
b) Stability of calcitriol in Cetiol SN (cetearyl isononanoate): Solution of calcitriol 30 ppm in qs 100% of Cetiol SN (cetearyl isononanoate) in the presence of 0.4% of BHT. HPLC assay technique against reference substance. At the starting time (TO) the composition is considered to contain 100% of calcitriol. Concentration of calcitriol measured in % relative to TO: […]

Regarding `C=C1/C(=C\C=C2/CCC[C@]3(C)[C@@H]([C@H](C)CCCC(C)(C)O)CC[C@@H]23)C[C@@H](O)C[C@@H]1O` [calcitriol], the “Concentration of calcitriol measured in % relative to TO” value in data set [1] (+4° C., T 2 weeks) is on record as 98.3%; in data set [1] (+4° C., T 4 weeks) it was 105.2%; in data set [1] (+40° C., T 2 weeks), 91%; in data set [1] (+40° C., T 4 weeks), 93.8%; in data set [1] (AT, T 2 weeks), 95.1%; in data set [1] (AT, T 4 weeks) it was 98.0%. The “Concentration of calcitriol measured in % relative to TO” value in data set [2] (+4° C., T 2 weeks) came out at 98.6%; in data set [2] (+4° C., T 4 weeks), 98.1%; in data set [2] (+40° C., T 2 weeks), 99.0%; in data set [2] (+40° C., T 4 weeks) it was 98.9%; in data set [2] (AT, T 2 weeks), 98.7%; in data set [2] (AT, T 4 weeks) it was 98.4%.

The values are drawn from patent US20050281749A1, “Sprayable compositions comprising a combination of pharmaceutical actives and an oily phase” (GALDERMA S.A., priority 2004, published 2005).
